Source: PMC11574021, “CEP192 localises mitotic Aurora-A activity by priming its interaction with TPX2” (The EMBO Journal, 2024)
One block for each molecule: values may come before it.

Key:
Aurora-A CAKD = molecular target: T1, Aurora-A CAKD (Homo sapiens, UniProt O14965, C290A/C393A); assay: Fluorescence anisotropy competition with FAM-TACC3 522-536; assay type: binding; conditions: in words
T1 construct: 25 μM Aurora-A kinase domain (phosphorylated or unphosphorylated C290A C393A 122–403); His (N, cleaved yes); made in house; host or cells: E. coli
T1 sequence (O14965 122-403 C290A/C393A): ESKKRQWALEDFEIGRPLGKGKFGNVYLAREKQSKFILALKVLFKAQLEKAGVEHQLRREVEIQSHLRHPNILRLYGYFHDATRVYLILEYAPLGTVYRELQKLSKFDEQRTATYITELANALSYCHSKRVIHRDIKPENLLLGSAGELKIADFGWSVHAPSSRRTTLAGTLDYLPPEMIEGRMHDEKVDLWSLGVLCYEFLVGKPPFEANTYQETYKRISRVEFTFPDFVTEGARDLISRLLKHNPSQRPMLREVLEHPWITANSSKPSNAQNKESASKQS
Description: Assays were performed in 25 mM HEPES pH 7.5, 150 mM NaCl, 2 mM DTT, 5 mM MgCl2, 0.01% Tween 20. For CEP192 and TPX2 competition assays 10 μM Aurora-A kinase domain (phosphorylated or unphosphorylated C290A C393A 122–403) was preincubated on ice with 100 nM FAM-TPX2 7-43 or 100 nM FAM-CEP192 501–533. For TACC3 competition, due to weaker binding, 25 μM Aurora-A kinase domain (phosphorylated or unphosphorylated C290A C393A 122–403) was preincubated with 100 nM FAM-TACC3 522-536. Serial dilutions of competitor (CEP192) were performed in triplicate into a low volume 384-well black plate, before the premixed Aurora-A and tracer were added. A control row included no tracer. Plates were left incubating for 1 h at room temperature before the fluorescence anisotropy was measured using a HIDEX plate reader, with excitation at 485 nm and emission at 535 nm. […]
(§1) Fluorescence anisotropy data were processed using Microsoft Excel to calculate intensity and anisotropy using the equation listed in (Yeo et al, [2013]). The IC50 and Kd values were calculated using Origin (OriginLab) where the data fitted to a sigmoid and are summarised in Appendix Table S3.

[1] = molecular target: T2, unphosphorylated Aurora-A CAKD (Homo sapiens, UniProt O14965, C290A/C393A); assay: Fluorescence anisotropy competition with FAM-TPX2 7-43; assay type: binding; conditions: in words, Aurora-A CAKD
T2 construct: 10 μM Aurora-A kinase domain (phosphorylated or unphosphorylated C290A C393A 122–403); His (N, cleaved yes); made in house; host or cells: E. coli RIL, co-expressed with lambda phosphatase
T2 sequence (O14965 122-403 C290A/C393A): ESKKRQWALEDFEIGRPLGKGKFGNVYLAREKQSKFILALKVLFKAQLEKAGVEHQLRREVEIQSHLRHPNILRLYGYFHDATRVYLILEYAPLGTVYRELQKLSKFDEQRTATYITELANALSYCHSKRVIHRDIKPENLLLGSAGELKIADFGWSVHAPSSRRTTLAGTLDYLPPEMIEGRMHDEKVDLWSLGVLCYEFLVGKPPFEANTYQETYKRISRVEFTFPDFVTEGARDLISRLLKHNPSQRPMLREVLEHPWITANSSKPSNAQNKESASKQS
Description: Assays were performed in 25 mM HEPES pH 7.5, 150 mM NaCl, 2 mM DTT, 5 mM MgCl2, 0.01% Tween 20. For CEP192 and TPX2 competition assays 10 μM Aurora-A kinase domain (phosphorylated or unphosphorylated C290A C393A 122–403) was preincubated on ice with 100 nM FAM-TPX2 7-43 or 100 nM FAM-CEP192 501–533. For TACC3 competition, due to weaker binding, 25 μM Aurora-A kinase domain (phosphorylated or unphosphorylated C290A C393A 122–403) was preincubated with 100 nM FAM-TACC3 522-536. Serial dilutions of competitor (CEP192) were performed in triplicate into a low volume 384-well black plate, before the premixed Aurora-A and tracer were added. A control row included no tracer. Plates were left incubating for 1 h at room temperature before the fluorescence anisotropy was measured using a HIDEX plate reader, with excitation at 485 nm and emission at 535 nm. For direct binding experiments, the assay was performed as above, but the Aurora-A (122–403 C290A C393A or point mutants) was diluted across the plate from high to low concentration, before the addition of 50 nM tracer (FAM-CEP192 501–533) to three replicate rows. Buffer only was added to the control row.
as §1

[2] = molecular target: T3, phosphorylated Aurora-A CAKD (Homo sapiens, UniProt O14965, C290A/C393A); assay: ADP-Glo kinase assay, kemptide substrate; assay type: biochemical; conditions: ADP-Glo, phosphorylated Aurora-A CAKD, kemptide; in words
T3 construct: 10 nM Aurora-A 122–403 C290A C393A phosphorylated protein; His (N, cleaved yes); made in house; host or cells: E. coli B834 (no lambda phosphatase)
T3 sequence (O14965 122-403 C290A/C393A): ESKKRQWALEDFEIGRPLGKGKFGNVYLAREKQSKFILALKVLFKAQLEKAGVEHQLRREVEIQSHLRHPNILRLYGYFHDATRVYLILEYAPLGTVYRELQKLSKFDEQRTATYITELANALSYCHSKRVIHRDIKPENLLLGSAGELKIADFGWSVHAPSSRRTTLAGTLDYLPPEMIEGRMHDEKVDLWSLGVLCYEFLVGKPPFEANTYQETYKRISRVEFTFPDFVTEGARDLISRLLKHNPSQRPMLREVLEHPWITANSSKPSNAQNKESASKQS
Description: Reactions were initiated by the addition of 10 μM ATP and 100 μM kemptide as substrate (Cambridge Bioscience Ltd). The reactions were incubated at room temperature for 60 min before 5 μl was transferred into 5 ul of ADP-Glo Reagent (Promega) in a 384-well low volume low binding plate (Greiner Bio-one). After a further 40 min at room temperature, 10 μl of kinase detection reagent was added to each well, and the reaction was allowed to incubate for an additional 30 min. Luminescence was measured on a HIDEX Sense plate reader (HIDEX) using a 1 s integration time. Control data was subtracted from the luminescence and three repeats were averaged before being fitted to a sigmoidal plot using Origin (OriginLab), where IC50 and EC50 values were calculated.

[3] = tested on: PLK1-pT210 in RPE1 p53-/- cells; assay: Western blot densitometry, PLK1-pT210, RPE1 p53-/-; assay type: cell-based, Homo sapiens; conditions: mitotic RPE1 p53-/- lysates, inhibitor 30 min
Description: (§2) For measuring monopolar spindle diameter and counting centriolar foci by immunofluorescence, cells were treated with 10 µM STLC for 1 h and 4 h prior to fixation, respectively.
(§3) Drugs were resuspended in DMSO to the stock concentrations indicated in square brackets.
(§4) Cells were lysed on ice for 30 min in lysis buffer (50 mM tris pH 8.0, 300 mM NaCl, 0.2%(v/v) NP-40, 10%(v/v) glycerol, protease inhibitor cocktail C, phosphatase inhibitor cocktail 3 (Sigma, 1:200 dilution), 100 nM okadaic acid (Enzo, ALX-350-003-C100)). Lysates were then centrifuged at 14,000 × g, 15 min, 4 °C, the supernatants were transferred to a fresh tube, and the pellet was discarded. Protein concentrations were measured by Bradford assay using Protein Assay Dye Reagent Concentrate (Bio-Rad Laboratories, 5000006). NuPage LDS sample buffer, supplemented with NuPAGE sample reducing agent (Invitrogen) were added prior to boiling for 10 min at 90 °C. […] Nitrocellulose was then blocked in 5% milk (wt/v) in TBS, 0.1% Tween (v/v) (TBST) for 1 h. Primary and secondary antibodies were diluted in 5% milk, TBST and incubated overnight at 4 °C or for 1 h at room temperature, respectively. […]
(§5) Densitometric quantification of western blots was also performed in ImageJ. Intensity was measured in a rectangular region of interest (ROI) around each band. […] An adjacent region was also measured to account for background intensity.

[4] = tested on: TCTP-pS46 in RPE1 p53-/- cells; assay: Western blot densitometry, TCTP-pS46, RPE1 p53-/-; assay type: cell-based, Homo sapiens; conditions: mitotic RPE1 p53-/- lysates, inhibitor 30 min
Description: as §2, §3, §4, §5

Aurora-A (Homo sapiens) = Aurora-A (Homo sapiens) (UniProt O14965); assay: fluorescence polarisation; conditions: cited from earlier work
Chain of Aurora-A (Homo sapiens) (O14965 whole entry): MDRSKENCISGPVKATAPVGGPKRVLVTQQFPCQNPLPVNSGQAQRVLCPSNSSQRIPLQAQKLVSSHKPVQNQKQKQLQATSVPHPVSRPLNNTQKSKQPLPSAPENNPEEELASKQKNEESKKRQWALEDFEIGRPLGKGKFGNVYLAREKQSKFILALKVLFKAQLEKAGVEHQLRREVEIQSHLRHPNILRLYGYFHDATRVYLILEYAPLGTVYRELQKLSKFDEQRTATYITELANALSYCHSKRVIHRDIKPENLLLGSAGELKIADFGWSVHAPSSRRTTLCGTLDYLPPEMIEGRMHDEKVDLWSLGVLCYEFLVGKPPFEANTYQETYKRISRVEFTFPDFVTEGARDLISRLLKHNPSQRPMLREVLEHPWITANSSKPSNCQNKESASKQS

competition for binding with FAM-TPX2 7-43 [1]: competed for binding with FAM-TPX2_7-43
Molecule: IWSPTCERRTCECHESIEKNKDKTDLPQSVVYQNEEGRWVTDLAYYTSFNSKQNLNVSLSDEMNEDFRSGSEAFDLIAQDEEEFNKEHQFIQ [CEP192 442-533, recombinant human CEP192 aa 442–533]
competition for binding with FAM-TACC3 522-536 (Aurora-A CAKD): competed for binding with FAM-TACC3_522-536 | effect on Aurora-A kinase activity [2]: partially inhibited the activity

Molecule: CC[C@@H]1C(=O)N(C)c2cnc(Nc3ccc(C(=O)NC4CCN(C)CC4)cc3OC)nc2N1C1CCCC1 [BI2536]
T-loop phosphorylation of PLK1 (pT210) [3]: decreased | phosphorylation of TCTP (pS46) [4]: decreased

Molecule: TACC3 519-563 (from UniProt Q9Y6A5)
Kd (Aurora-A (Homo sapiens)): 6 µM
